One may read the IC50 as the point on the concentration scale where inhibition reaches its midpoint.

The experiment deals with Aβ42. In words: In vitro cell screening assay; quantification of Aβ (1-42) peptide by sandwich ELISA. To be noted: Human neuroglioma H4 cells stably expressing human wild type APP751; compounds 0.003-10 μM, incubated overnight (16-18 h); Aβ42 in supernatant by sandwich ELISA; normalized to DMSO and DAPT; read-out: Aβ42 H4 Prot Fre IC50. The format is cell-based. The procedure: Human neuroglioma H4 cells were transfected with a pcDNA3.1 plasmid expressing human wild type APP751 cDNA and a stable cell line was generated using G418 selection. Cells were plated at 15,000 cells/well in Costar 96-well plates and placed at 37° C. and 5% CO2. Six hours after plating, cells were washed three times with Pro293™ chemically defined medium, followed by addition of compounds (0.003-10 μM, final DMSO concentration of 0.33%). Plates were incubated overnight (16-18 h) and supernatant was removed for quantification of Aβ peptides by sandwich ELISA. Cytotoxicity was evaluated using Cell-Titer 96W AQueous One Solution Cell Proliferation Assay according to the manufacturer's protocol.
Aβ peptide levels were quantified by sandwich ELISA. 96-well plates were coated with C-terminal specific Aβ antibodies recognizing either Aβ37, Aβ38, Aβ40, Aβ42, Aβ43 or a N-terminal specific Aβ antibody to detect Aβ 1-x. Plates were then blocked overnight at 4° C. with 1% bovine serum albumin (BSA) in PBS-T. Plates were washed and 100 μl of cultured cell supernatant or synthetic Aβ peptide standards and a detection antibody (4G8-HRP) were applied to the blocked plate and incubated overnight at 4° C. The next day, wells were washed before the addition of detection substrate (TMB peroxidase). Plates were then read for absorbance at 450 nm on a Molecular Devices SpectraMax M5e Microplate Reader.
Compound-treated samples were normalized to samples treated with DMSO alone (no inhibition) and to samples treated with DAPT. IC50 values were calculated from values reported as percent of DMSO controls using nonlinear regression, based on a sigmoidal dose—response (variable slope) model. […] used for calculation.
For orientation: ELISA stands for enzyme-linked immunosorbent assay.
With `COc1nc(C2=NOC(C)C(c3cn(C)c4cc(F)c(F)cc34)N2)ccc1-n1cnc(C)c1` (single isomer, unassigned; (+)) [Example 39D, (+)-5-(5,6-difluoro-1-methyl-1H-indol-3-yl)-3-(6-methoxy-5-(4-methyl-1H-imidazol-1-yl)pyridin-2-yl)-6-methyl-5,6-dihydro-4H-1,2,4-oxadiazine], the IC50 was 4.4 nM.
Turning to `COc1nc(C2=NOC(C)C(c3cn(C)c4ncc(F)c(F)c34)N2)ccc1-n1cnc(C)c1` (single isomer, unassigned; (+)) [Example 51A, (+)-5-(4,5-difluoro-1-methyl-1H-pyrrolo [2,3-b]pyridin-3-yl)-3-(6-methoxy-5-(4-methyl-1H-imidazol-1-yl)pyridin-2-yl)-6-methyl-5,6-dihydro-4H-1,2,4-oxadiazine], the IC50 was 11.7 nM.
The same measure for `COc1nc(C2=NOC(C)C(c3ccc(Cl)c(C(F)F)c3)N2)ccc1-n1cnc(C)c1` (single isomer, unassigned; (+)) [Example 55A, (+)-5-(4-chloro-3-(difluoromethyl)phenyl)-3-(6-methoxy-5-(4-methyl-1H-imidazol-1-yl)pyridin-2-yl)-6-methyl-5,6-dihydro-4H-1,2,4-oxadiazine]: 11.6 nM.
Consider `COc1nc(C2=NOC(C)C(c3cn(C)c4ncc(F)c(F)c34)N2)ccc1-n1cnc(C)c1` (single isomer, unassigned; (+)) [Example 51D, (+)-5-(4,5-difluoro-1-methyl-1H-pyrrolo [2,3-b]pyridin-3-yl)-3-(6-methoxy-5-(4-methyl-1H-imidazol-1-yl)pyridin-2-yl)-6-methyl-5,6-dihydro-4H-1,2,4-oxadiazine], for which the IC50 worked out at 68.9 nM.
With `COc1nc(C2=NOC(C3CC3)C(c3cn(C)c4ncc(F)c(F)c34)N2)ccc1-n1cnc(C)c1` (single isomer, unassigned; (-)) [Example 60B, (−)-6-cyclopropyl-5-(4,5-difluoro-1-methyl-1H-pyrrolo [2,3-b]pyridin-3-yl)-3-(6-methoxy-5-(4-methyl-1H-imidazol-1-yl)pyridin-2-yl)-5,6-dihydro-4H-1,2,4-oxadiazine] the figure was 42.7 nM.
With `COc1nc(C2=NO[C@H](C)[C@H](c3ccc(Cl)cc3)N2)ccc1-n1cnc(C)c1` [Example 18B, (+)-(5S,6R)-5-(4-chlorophenyl)-3-[6-methoxy-5-(4-methyl-1H-imidazol-1-yl)pyridin-2-yl]-6-methyl-5,6-dihydro-4H-1,2,4-oxadiazine], the IC50 is 19 nM.
With `COc1nc(C2=NOC(C)C(c3cccc(Cl)c3)N2)ccc1-c1ccnc(C)c1` (single isomer, unassigned; (+)) [Example 49B, (+)-5-(3-chlorophenyl)-3-(2-methoxy-2′-methyl-[3,4′-bipyridin]-6-yl)-6-methyl-5,6-dihydro-4H-1,2,4-oxadiazine], the IC50 amounted to 15.8 nM.
The same measure for `COc1nc(C2=NOCC(c3c4n(c5ccc(Cl)cc35)CCOC4)N2)ccc1-n1cnc(C)c1` (single isomer, unassigned; (-)) [Example 28B, (−)-8-chloro-10-(3-(6-methoxy-5-(4-methyl-1H-imidazol-1-yl)pyridin-2-yl)-5,6-dihydro-4H-1,2,4-oxadiazin-5-yl)-3,4-dihydro-1H-[1,4]oxazino[4,3-a]indole]: 61.8 nM; for `COc1nc(C2=NOC(C3CC3)C(c3cn(C)c4nccc(F)c34)N2)ccc1-n1cnc(C)c1` (single isomer, unassigned; (+)) [Example 63A, (+)-6-cyclopropyl-5-(4-fluoro-1-methyl-1H-pyrrolo [2,3-b]pyridin-3-yl)-3-(6-methoxy-5-(4-methyl-1H-imidazol-1-yl)pyridin-2-yl)-5,6-dihydro-4H-1,2,4-oxadiazine]: 1060 nM; for `COc1nc(C2=NOC(C)C(c3cc4ccc(Cl)cc4o3)N2)ccc1-n1cnc(C)c1` (single isomer, unassigned) [Example 46B, 5-(6-chlorobenzofuran-2-yl)-3-(6-methoxy-5-(4-methyl-1H-imidazol-1-yl)pyridin-2-yl)-6-methyl-5,6-dihydro-4H-1,2,4-oxadiazine]: 5.1 nM.
With `COc1nc(C2=NOC(C)C(c3cn(C)c4ccc(F)c(F)c34)N2)ccc1-n1cnc(C)c1` (single isomer, unassigned; (-)) [Example 52A, (−)-5-(4,5-difluoro-1-methyl-1H-indol-3-yl)-3-(6-methoxy-5-(4-methyl-1H-imidazol-1-yl)pyridin-2-yl)-6-methyl-5,6-dihydro-4H-1,2,4-oxadiazine] the figure was 84 nM; with `COc1nc(C2=NOC(C)C(c3cn(C)c4ncc(F)c(F)c34)N2)ccc1-n1cnc(C)c1` (single isomer, unassigned; (-)) [Example 51B, (−)-5-(4,5-difluoro-1-methyl-1H-pyrrolo [2,3-b]pyridin-3-yl)-3-(6-methoxy-5-(4-methyl-1H-imidazol-1-yl)pyridin-2-yl)-6-methyl-5,6-dihydro-4H-1,2,4-oxadiazine], 218 nM; with `COc1nc(C2=NOC(C)C(c3ccc(Cl)c(F)c3)N2)ccc1-n1cnc(C)c1` (stereo not drawn) [40-IA or 40-IIA, (−)-(cis)-5-(4-chloro-3-fluorophenyl)-3-(6-methoxy-5-(4-methyl-1H-imidazol-1-yl)pyridin-2-yl)-6-methyl-5,6-dihydro-4H-1,2,4-oxadiazine], 1840 nM.
Consider `COc1nc(C2=NOC(C3CC3)C(c3cn(C)c4ncc(Cl)cc34)N2)ccc1-n1cnc(C)c1` (stereo not drawn) [57B or 58B, (−)-(cis)-5-(5-chloro-1-methyl-1H-pyrrolo[2,3-b]pyridin-3-yl)-6-cyclopropyl-3-(6-methoxy-5-(4-methyl-1H-imidazol-1-yl)pyridin-2-yl)-5,6-dihydro-4H-1,2,4-oxadiazine], for which the IC50 came to 6.7 nM.
The same measure for `COc1nc(C2=NOC(C)C(c3cn(C)c4cc(F)c(Cl)cc34)N2)ccc1-n1cnc(C)c1` (single isomer, unassigned; (+)) [Example 21B, (+)-5-(5-chloro-6-fluoro-1-methyl-1H-indol-3-yl)-3-(6-methoxy-5-(4-methyl-1H-imidazol-1-yl)pyridin-2-yl)-6-methyl-5,6-dihydro-4H-1,2,4-oxadiazine]: 3 nM; for `COc1cc(C2=NOC(C)C(c3ccc(Cl)cc3)N2)ccc1-n1cnc(C)c1` (single isomer, unassigned; (+)) [Example 43B, (+)-5-(4-chlorophenyl)-3-(3-methoxy-4-(4-methyl-1H-imidazol-1-yl)phenyl)-6-methyl-5,6-dihydro-4H-1,2,4-oxadiazine]: 80.5 nM.
For `COc1nc(C2=NOC3(CC3)C(c3ccc(Cl)cc3)N2)ccc1-n1cnc(C)c1` (single isomer, unassigned; (-)) [Example 25A, (−)-8-(4-chlorophenyl)-6-[6-methoxy-5-(4-methyl-1H-imidazol-1-yl)pyridin-2-yl]-4-oxa-5,7-diazaspiro[2.5]oct-5-ene], the IC50 amounted to 2600 nM.
For `COc1nc(C2=NOC(C)C(c3cn(C)c4ncc(Cl)c(F)c34)N2)ccc1-n1cnc(C)c1` (single isomer, unassigned; (+)) [Example 62A, (+)-5-(5-chloro-4-fluoro-1-methyl-1H-pyrrolo [2,3-b]pyridin-3-yl)-3-(6-methoxy-5-(4-methyl-1H-imidazol-1-yl)pyridin-2-yl)-6-methyl-5,6-dihydro-4H-1,2,4-oxadiazine], the IC50 turned out to be 31.7 nM.
The same measure for `COc1nc(C2=NOC(C)C(c3cn(C)c4ncc(Cl)cc34)N2)ccc1-n1cnc(C)c1` (single isomer, unassigned; (+)) [Example 54D, (+)-5-(5-chloro-1-methyl-1H-pyrrolo [2,3-b]pyridin-3-yl)-3-(6-methoxy-5-(4-methyl-1H-imidazol-1-yl)pyridin-2-yl)-6-methyl-5,6-dihydro-4H-1,2,4-oxadiazine]: 5.1 nM; for `COc1nc(C2=NOCC(c3c4n(c5ccccc35)CCOC4)N2)ccc1-n1cnc(C)c1` (single isomer, unassigned; (+)) [Example 30B, (+)-10-(3-(6-methoxy-5-(4-methyl-1H-imidazol-1-yl)pyridin-2-yl)-5,6-dihydro-4H-1,2,4-oxadiazin-5-yl)-3,4-dihydro-1H-[1,4]oxazino[4,3-a]indole]: 16.9 nM; for `COc1nc(C2=NOC(C)C(c3c4n(c5ccc(Cl)cc35)CCOC4)N2)ccc1-n1cnc(C)c1` (single isomer, unassigned; (+)) [Example 50D, (+)-8-chloro-10-(3-(6-methoxy-5-(4-methyl-1H-imidazol-1-yl)pyridin-2-yl)-6-methyl-5,6-dihydro-4H-1,2,4-oxadiazin-5-yl)-3,4-dihydro-1H-[1,4] oxazino [4,3-a] indole]: 6.3 nM.
Turning to `COc1nc(C2=NOC(C)C(c3cccc(Cl)c3)N2)ccc1-n1cnc(C)c1` (single isomer, unassigned) [Example 41B, 5-(3-chlorophenyl)-3-(6-methoxy-5-(4-methyl-1H-imidazol-1-yl)pyridin-2-yl)-6-methyl-5,6-dihydro-4H-1,2,4-oxadiazine], the IC50 stood at 14.2 nM.
